{"source": "patent US20030109670A1", "about": "“Cone snail peptides” (University of Utah Research Foundation, priority 2001, published 2003)", "origin": "cited, not measured here", "key": {"[1]": {"conditions": "IBS patients"}, "[2]": {"conditions": "in vivo"}, "[3]": {"conditions": "in vivo", "remark": "listed apart in the source"}}, "note": "Ends that are not written are not given here.", "data": [{"molecule": "Cc1[nH]cnc1CN1CCc2c(c3ccccc3n2C)C1=O", "note": "[Alosteron]", "values": [{"measurement": "perception of colonic distension and gut compliance", "setting": "[1]", "result": "active in modifying the perception of colonic distension and gut compliance"}, {"measurement": "abdominal pain, colonic transit, colon compliance", "setting": "[1]; phase III compound", "result": "reduce abdominal pain, slow colonic transit and increase colon compliance"}]}, {"molecule": "CSCC[C@@H]1NC(=O)[C@H](CC(C)C)NC(=O)[C@H](CCCNC(=N)N)NC(=O)[C@H](CO)NC(=O)[C@@H]2CSSC[C@@H]3NC(=O)[C@H](CO)NC(=O)CNC(=O)[C@H]([C@@H](C)O)NC(=O)[C@H](CSSC[C@H](N)C(=O)N[C@@H](CCCCN)C(=O)NCC(=O)N[C@@H](CCCCN)C(=O)NCC(=O)N[C@@H](C)C(=O)N[C@@H](CCCCN)C(=O)N2)NC(=O)[C@H](CSSC[C@@H](C(N)=O)NC(=O)[C@H](CCCCN)NC(=O)CNC(=O)[C@H](CO)NC(=O)[C@H](CCCNC(=N)N)NC3=O)NC(=O)[C@H](CC(=O)O)NC(=O)[C@H](Cc2ccc(O)cc2)NC1=O", "note": "[ω-Conotoxin MVIIA]", "values": [{"measurement": "potency relative to morphine", "setting": "[2]", "result": "approximately 1000 times"}, {"measurement": "tolerance or addictive properties", "setting": "[2]", "result": "does not produce the tolerance or addictive properties of opiates"}]}, {"molecule": "Contulakin-G: 16 amino acid O-linked glycopeptide from Conus geographus, agonist of neurotensin receptors (QSEEGGSNATKKPYIL; also: O-linked glycan, site not given here; UniProt Q9XYR5 51-66, looked up)", "values": [{"measurement": "potency in inhibiting pain relative to neurotensin", "setting": "[3]", "result": "significantly more potent than neurotensin"}]}]}
